Assay results: US20230127965A1, “METHODS FOR TREATING, AMELIORATING, OR PREVENTING VIRAL INFECTIONS” (Thomas Jefferson University, priority 2020, published 2023)
Entries after “also recorded” stand apart in the source; their conditions may differ.

Tests used:
Type in all cases: cell-based
Zika virus = Zika virus infection of U2OS cells, qPCR; conditions: 10 μM, treated 2 hours before infection, MOI of 1, ~16-18 hours (FIG. 7)
Powassan virus = system: Powassan virus
SARS-CoV-2 = system: SARS-CoV-2
Dengue virus = Dengue virus infection of U2OS cells, qPCR; conditions: 10 μM, treated 2 hours before infection, MOI of 1, ~16-18 hours (FIG. 6)
androgen receptor (AR) = system: androgen receptor (AR)

Row | Structure (SMILES) | Zika virus infection (fold change, qPCR) (Zika virus) | Powassan virus infection (fold change, qPCR) (Powassan virus) | blocked SARS-CoV-2 infection (fold) (SARS-CoV-2) | effect on SARS-CoV-2 infection (in words) (SARS-CoV-2) | Dengue virus infection (fold change, qPCR) (Dengue virus) | DHT induced AR transcriptional activity (androgen receptor (AR))
1 | N=C(NCCCOc1ccc(F)cc1)Nc1ccc(Cl)cc1 [CT189] | inhibit | inhibit | 1,000 fold | inhibit SARS-CoV-2 infection | inhibit | inhibition
2 | Cc1cc(OCCN2CCOCC2)nn1-c1ccc2ccccc2c1 [Compound S1RA, 4-[2-[[5-methyl-1-(2-naphthalenyl)-1H-pyrazol-3-yl]oxy]ethyl]morpholine] |  |  |  | did not block infection; also recorded: does not block infection |  | 
3 | O=C(CCCN1CCC(O)(c2ccc(Cl)cc2)CC1)c1ccc(F)cc1 [Haloperidol, 4-[4-(4-chlorophenyl)-4-hydroxypiperidin-1-yl]-1-(4-fluorophenyl)butan-1-one] |  |  |  | clear but modest antiviral effect |  | 
4 | N=C(Nc1ccc(I)cc1)NC1C2CC3CC(C2)CC1C3 (stereo not shown) [IPAG] |  |  | 1,000 fold | inhibit SARS-CoV-2 infection |  | inhibition
5 | O=C(OCCN1CCOCC1)C1(c2ccccc2)CCCCC1 [PRE084, 2-morpholin-4-ylethyl 1-phenylcyclohexane-1-carboxylate] |  |  |  | did not block infection |  | 
6 | COc1ccc(CCN2CCN(CCCc3ccccc3)CC2)cc1OC [SA4503, 1-(3,4-dimethoxyphenethyl)-4-(3-phenylpropyl) piperazine] |  |  |  | did not block infection |  | 
